Measured values reported in patent US20090155784A1, “ASSESSMENT OF ASTHMA AND ALLERGEN-DEPENDENT GENE EXPRESSION” (Wyeth, priority 2007, published 2009).

System: PBMCs from healthy volunteers
Assay: HG-U133A baseline gene expression in PBMCs of healthy volunteers (HV), cPLA2 inhibitor in the absence of allergen (no AG)
Assay type: cell-based, human
Source text: PBMCs were stimulated in vitro with a cocktail containing 4 different allergens from house dust mite, ragweed and cat. Recombinant allergens, Der p1, Der f2, Fel d1 (Indoor Biotech, Charlottesville, Va.) and natural ragweed allergen (Allergy Lab, Seattle, Wash.) were selected and screened for endotoxin contamination (LAL Endotoxin Test, Catalog #HIT302, sensitivity, 0.0001 Eu/ml, Cell Sciences, Canton, Mass.). The sensitivity of the subjects was unknown but the allergens were chosen based on the estimate that 80% of allergic individuals are believed to react to one or more of these allergens. Culture medium contained RPMI-1640 (Sigma) with 10% heat inactivated FCS (Sigma St. Louis, Mo.) and 100 unit/mL Penicillin and […] Streptomycin and 0.292 mg/mL Glutamine (GIBCO RL Invitrogen, Carlsbad, Calif.). The final allergen cocktail concentrations in culture medium were: Der p1 and Der f2 (dust mite), 1 mg/ml; Fel d1 (cat), 1.25 mg/ml; ragweed, 125 mg/ml. The total level of endotoxin contamination in culture medium was 0.057 Eu/ml. The cPLA2 inhibitor 4-{3-[1-benzhydryl-5-chloro-2-(2-{[(2,6-dimethylbenzyl)sulfonyl]amino}ethyl)-1H-indol-3-yl]propyl}benzoic acid was used at a concentration of 0.3 μM/ml. Zileuton, a 5-lipoxygenase inhibitor, was added at a concentration of 5 μM. The inhibitory activity of both the cPLA2 inhibitor and Zileuton samples were verified in a human whole blood assay. After 6 days in culture approximately 200 μL of supernatant was removed using an 8-channel pipettor without disturbing the cell pellet and placed into a collection plate for cytokine ELISA assays. To the remaining cell pellet 100 μL of RLT lysis buffer containing 1% beta-mercaptoethanol was added and snap frozen for RNA purification.
RNA was purified using QIA shredders and Rneasy mini kits (Qiagen, Valencia, Calif.). PBMC pellets frozen in RLT lysis buffer containing 1% β-mercaptoethanol were thawed and processed for total RNA isolation using the QIA shredder and RNeasy mini kit. A phenol:chloroform extraction was then performed, and the RNA was repurified using the RNeasy mini kit reagents. Eluted RNA was quantified using a Spectramax96 well plate UV reader (Molecular Devices, Sunnyvale, Calif., USA) monitoring A260/280 OD values. The quality of each RNA sample was assessed by capillary electrophoresis alongside an RNA molecular weight ladder on the Agilent 2100 bioanalyzer (Agilent Technologies, Palo Alto, Calif., USA). RNA samples were assigned quality values of intact (distinct 18S and 28S bands); partially degraded (discernible 18S and 28S bands with presence of low molecular weight bands) or completely degraded (no discernible 18S and 28S bands).
Labeled targets for oligonucleotide arrays were prepared using a modification of the procedure described by Lockhart et al. (Lockhart (1996) Nat. Biotechnol. 14:1675-80). Labeled targets were hybridized to the HG-U133A Affymetrix GeneChip Array as described in the Affymetrix technical manual. Eleven biotinylated control transcripts ranging in abundance from 3 parts per million (ppm) to 100 ppm were spiked into each sample to function as a standard curve (Hill (2001) Genome Biol. 2:RESEARCH0055). GeneChip MAS 5.0 software was used to evaluate the hybridization intensity, compute the signal value for each probe set and make an absent/present call.
GeneChips were required to pass the pre-set quality control criteria that the RNA quality metric required a 5′:3′ ratio. Two asthma subjects were excluded from the study due to failure to meet the RNA quality metric and 2 GeneChips from the group treated with cPLA2a inhibitor were excluded for the same reason. The signal value for each probe set was converted into a frequency value representative of the number of transcripts present in 10^6 transcripts by reference to the standard curve (Hill (2001) Genome Biol. 2:RESEARCH0055). […]

[1] = healthy population, no allergen

Cc1cccc(C)c1CS(=O)(=O)NCCc1c(CCCc2ccc(C(=O)O)cc2)c2cc(Cl)ccc2n1C(c1ccccc1)c1ccccc1 [cPLA2 inhibitor, 4-{3-[1-benzhydryl-5-chloro-2-(2-{[(2,6-dimethylbenzyl)sulfonyl]amino}ethyl)-1H-indol-3-yl]propyl}benzoic acid]
probes significantly downregulated in the presence of cPLA2 inhibition [1]: 43 probes | probes significantly upregulated in the presence of cPLA2 inhibition [1]: 36 probes | Fold Change cPLA2 inhibitor vs. no AG HV (probeset 44673_at, gene SN): 1.425 fold | Fold Change cPLA2 inhibitor vs. no AG HV (probeset 58696_at, gene RRP41): 1.202 fold | Fold Change cPLA2 inhibitor vs. no AG HV (probeset 200886_s_at, gene PGAM1): −1.153 fold | Fold Change cPLA2 inhibitor vs. no AG HV (probeset 200887_s_at, gene STAT1): 1.158 fold | Fold Change cPLA2 inhibitor vs. no AG HV (probeset 200923_at, gene LGALS3BP): 1.268 fold | Fold Change cPLA2 inhibitor vs. no AG HV (probeset 200976_s_at, gene TAX1BP1): 1.159 fold | Fold Change cPLA2 inhibitor vs. no AG HV (probeset 201061_s_at, gene STOM): 1.242 fold | Fold Change cPLA2 inhibitor vs. no AG HV (probeset 201090_x_at, gene K-ALPHA-1): 1.122 fold | Fold Change cPLA2 inhibitor vs. no AG HV (probeset 201118_at, gene PGD): 1.22 fold | Fold Change cPLA2 inhibitor vs. no AG HV (probeset 201298_s_at, gene C2ORF6): 1.106 fold | Fold Change cPLA2 inhibitor vs. no AG HV (probeset 201463_s_at, gene TALDO1): 1.153 fold | Fold Change cPLA2 inhibitor vs. no AG HV (probeset 201649_at, gene UBE2L6): 1.19 fold | Fold Change cPLA2 inhibitor vs. no AG HV (probeset 201785_at, gene RNASE1): −3.602 fold | Fold Change cPLA2 inhibitor vs. no AG HV (probeset 201945_at, gene FURIN): 1.348 fold | Fold Change cPLA2 inhibitor vs. no AG HV (probeset 202068_s_at, gene LDLR): 1.388 fold | Fold Change cPLA2 inhibitor vs. no AG HV (probeset 202193_at, gene LIMK2): 1.457 fold | Fold Change cPLA2 inhibitor vs. no AG HV (probeset 202245_at, gene LSS): 1.264 fold | Fold Change cPLA2 inhibitor vs. no AG HV (probeset 202269_x_at, gene GBP1): 1.475 fold | Fold Change cPLA2 inhibitor vs. no AG HV (probeset 202307_s_at, gene TAP1): 1.313 fold | Fold Change cPLA2 inhibitor vs. no AG HV (probeset 202308_at, gene SREBF1): 1.436 fold | Fold Change cPLA2 inhibitor vs. no AG HV (probeset 202510_s_at, gene TNFAIP2): 1.355 fold | Fold Change cPLA2 inhibitor vs. no AG HV (probeset 202531_at, gene IRF1): 1.259 fold | Fold Change cPLA2 inhibitor vs. no AG HV (probeset 202626_s_at, gene LYN): 1.54 fold | Fold Change cPLA2 inhibitor vs. no AG HV (probeset 202841_x_at, gene OGFR): 1.239 fold | Fold Change cPLA2 inhibitor vs. no AG HV (probeset 202847_at, gene PCK2): 1.344 fold | Fold Change cPLA2 inhibitor vs. no AG HV (probeset 202859_x_at, gene IL8): 2.42 fold | Fold Change cPLA2 inhibitor vs. no AG HV (probeset 202917_s_at, gene S100A8): 1.662 fold | Fold Change cPLA2 inhibitor vs. no AG HV (probeset 203922_s_at, gene CYBB): 1.52 fold | Fold Change cPLA2 inhibitor vs. no AG HV (probeset 203923_s_at, gene CYBB): 1.214 fold | Fold Change cPLA2 inhibitor vs. no AG HV (probeset 204034_at, gene ETHE1): 1.212 fold | Fold Change cPLA2 inhibitor vs. no AG HV (probeset 204224_s_at, gene GCH1): 1.48 fold | Fold Change cPLA2 inhibitor vs. no AG HV (probeset 204326_x_at, gene UNK_NM_002450): 2.024 fold | Fold Change cPLA2 inhibitor vs. no AG HV (probeset 204745_x_at, gene MT1G): 2.215 fold | Fold Change cPLA2 inhibitor vs. no AG HV (probeset 204858_s_at, gene ECGF1): 1.292 fold | Fold Change cPLA2 inhibitor vs. no AG HV (probeset 204929_s_at, gene VAMP5): 1.472 fold | Fold Change cPLA2 inhibitor vs. no AG HV (probeset 205322_s_at, gene MTF1): 1.553 fold | Fold Change cPLA2 inhibitor vs. no AG HV (probeset 205872_x_at, gene UNK_NM_022359): 1.629 fold | Fold Change cPLA2 inhibitor vs. no AG HV (probeset 205992_s_at, gene IL15): 1.522 fold | Fold Change cPLA2 inhibitor vs. no AG HV (probeset 206025_s_at, gene TNFAIP6): 1.671 fold | Fold Change cPLA2 inhibitor vs. no AG HV (probeset 206026_s_at, gene TNFAIP6): 1.866 fold | Fold Change cPLA2 inhibitor vs. no AG HV (probeset 206637_at, gene GPR105): 1.797 fold | Fold Change cPLA2 inhibitor vs. no AG HV (probeset 207091_at, gene P2RX7): 1.272 fold | Fold Change cPLA2 inhibitor vs. no AG HV (probeset 207277_at, gene CD209): 1.574 fold | Fold Change cPLA2 inhibitor vs. no AG HV (probeset 207533_at, gene CCL1): 2.229 fold | Fold Change cPLA2 inhibitor vs. no AG HV (probeset 207697_x_at, gene LILRB2): 1.484 fold | Fold Change cPLA2 inhibitor vs. no AG HV (probeset 208071_s_at, gene LAIR1): 1.82 fold | Fold Change cPLA2 inhibitor vs. no AG HV (probeset 208373_s_at, gene P2RY6): 1.593 fold | Fold Change cPLA2 inhibitor vs. no AG HV (probeset 208671_at, gene TDE2): −1.137 fold | Fold Change cPLA2 inhibitor vs. no AG HV (probeset 208699_x_at, gene TKT): 1.243 fold
